Laboratory results taken from patent EP4603105A1, “PHARMACEUTICAL COMPOSITION CONTAINING CYCLIC COMPOUND HAVING SELECTIVE KRAS INHIBITORY EFFECT AGAINST HRAS AND NRAS” (CHUGAI SEIYAKU KABUSHIKI KAISHA, priority 2022, dated 2024).
Where two headings read alike, the source gives them in different places.

Columns and labels:
[1] = molecular target: GDP-bound NRAS wild-type protein (Homo sapiens, UniProt P01111); assay: Binding to NRAS by surface plasmon resonance (SPR), KD and KD ratio to KRAS
Method in brief: (§1)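 SPR, 30°C: Avi-biotin RAS·GDP captured via Biotin CAPture (~100–300 RU); running buffer HBS pH 7.4, 1 mM DTT, 10 mM MgCl2, 0.01% Tween 20, 10 µM GDP, 4% DMSO. Single-cycle kinetics, 100 µL/min, 75 s injections; 1:1 model → KD.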

HRAS wild-type protein = HRAS wild-type protein (Homo sapiens, UniProt P01112); assay: Binding to HRAS by surface plasmon resonance (SPR), KD and KD ratio to KRAS
Method in brief: as §1

[2] = molecular target: GDP-bound KRAS wild-type protein (Homo sapiens, UniProt P01116); assay: Binding to KRAS by surface plasmon resonance (SPR), dissociation constant KD
Method in brief: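 Running buffer contained 10 µM GDP and 10 mM MgCl2 to keep RAS in the GDP state, with 4% DMSO at pH 7.4. Compounds were flowed at 100 µL/min in 75 s steps of rising concentration over captured biotin-Avi RAS at 30°C. Sensorgrams were fitted 1:1 for KD.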

[3] = test system: human lung cancer strain NCI-H441; assay: NCI-H441 cell proliferation inhibitory activity (CellTiter-Glo, 4 days); assay type: cell-based; settings: read-out: NCl-H441 IC50
Method in brief: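 Proliferation was scored by […] measured after the reagent was added to cultures kept at 37°C in 5% carbon dioxide.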

[4] = ratio of KD for GDP-bound NRAS wild-type protein to KD for KRAS
[5] = ratio of KD for HRAS wild-type protein to KD for KRAS
[6] = ratio of KD with respect to GDP-bound NRAS wild-type protein to KD with respect to KRAS
[7] = ratio of KD with respect to HRAS wild-type protein to KD with respect to KRAS
[8] = Single Cycle Kinetics, 1:1 binding model
[9] = 50% proliferation inhibitory concentration, four days

HRAS wild-type protein, sequence (P01112 whole entry): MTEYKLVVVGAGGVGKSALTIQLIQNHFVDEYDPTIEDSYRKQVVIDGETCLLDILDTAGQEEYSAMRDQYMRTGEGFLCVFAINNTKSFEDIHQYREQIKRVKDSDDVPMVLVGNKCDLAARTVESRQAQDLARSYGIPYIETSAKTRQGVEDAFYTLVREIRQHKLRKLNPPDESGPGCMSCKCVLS
GDP-bound NRAS wild-type protein, sequence (P01111 whole entry): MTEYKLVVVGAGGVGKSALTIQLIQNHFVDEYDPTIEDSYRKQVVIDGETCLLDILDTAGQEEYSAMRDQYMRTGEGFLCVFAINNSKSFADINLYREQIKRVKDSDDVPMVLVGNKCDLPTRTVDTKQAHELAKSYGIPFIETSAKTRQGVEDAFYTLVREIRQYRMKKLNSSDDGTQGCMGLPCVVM
GDP-bound KRAS wild-type protein, sequence (P01116 1-188 isoform P01116-2): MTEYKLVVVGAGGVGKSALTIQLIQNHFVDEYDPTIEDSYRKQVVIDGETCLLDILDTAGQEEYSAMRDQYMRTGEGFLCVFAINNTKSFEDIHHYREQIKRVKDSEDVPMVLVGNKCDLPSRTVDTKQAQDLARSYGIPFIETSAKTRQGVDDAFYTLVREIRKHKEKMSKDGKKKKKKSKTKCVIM

Row | Kd ([2]; Single Cycle Kinetics) | IC50 ([3]; NCI-H441 cells, 4 days) | Kd [2, 8] | IC50 [3, 9] | Kd ([2]; 1:1 binding model) | SMILES | NRAS /KRAS [1, 4] | HRAS /KRAS (HRAS wild-type protein; [5]) | NRAS /KRAS [1, 6] | HRAS /KRAS (HRAS wild-type protein; [7])
1 | 0.078 nM | 4.2 nM | – | – | – | C#CC[C@H]1C(=O)N[C@@H]([C@@H](C)CC)C(=O)N2CCC[C@H]2C(=O)N(C)[C@H]2C/C=C\CCN(C2=O)[C@@H](Cc2ccc(C)cc2)C(=O)N(C)CC(=O)N[C@@H](CCc2cc(F)c(C(F)(F)F)c(F)c2)C(=O)N2C[C@H](OCC)C[C@H]2C(=O)N(C)C2(CCC2)C(=O)N(C)[C@@H](C2CCCC2)C(=O)N(C)[C@H](C(=O)N(C)C)CC(=O)N1C [PP3256] | A (a compound having 10 or more and less than 20 is denoted as A) | A (a compound having 10 or more and less than 20 is denoted as A) | – | –
2 | 1.9 nM | 55.4 nM | – | – | – | CCO[C@@H]1C[C@H]2C(=O)NC3(CC(C)(C)C3)C(=O)N(C)[C@@H](C3CCCC3)C(=O)N(C)[C@H](C(=O)N(C)CC)CC(=O)N(C)[C@@H]([C@H](C)OC)C(=O)N[C@@H]([C@@H](C)CC)C(=O)N3CCC[C@H]3C(=O)N(C)[C@H]3C/C=C\CCN(C3=O)[C@@H](Cc3ccc(C(F)(F)F)cc3)C(=O)N(C)CC(=O)N[C@@H](CCc3ccc(C(F)(F)F)c(Cl)c3)C(=O)N2C1 [PP3224] | A (a compound having 10 or more and less than 20 is denoted as A) | A (a compound having 10 or more and less than 20 is denoted as A) | – | –
3 | – | – | 0.43 nM | 33.5 nM | – | CCO[C@@H]1C[C@H]2C(=O)NC3(CCC3)C(=O)N(C)[C@@H](C3CCCC3)C(=O)N(C)[C@H](C(=O)N3CCOCC3)CC(=O)N(C)[C@@H](Cc3ccc(Cl)c(Cl)c3)C(=O)N[C@@H]([C@@H](C)CC)C(=O)N(C)CC(=O)N(C)[C@H]3CCCCCN(C3=O)[C@@H](Cc3ccc(F)cc3)C(=O)N(C)CC(=O)N[C@@H](CCc3cc(F)c(C(F)(F)F)c(F)c3)C(=O)N2C1 [PP1188] | – | – | B (a compound having 3 or more and less than 10 is denoted as B) | B (a compound having 3 or more and less than 10 is denoted as B)
4 | – | 35.7 nM | – | – | 0.56 nM | CCC[C@H]1C(=O)N[C@@H]([C@@H](C)CC)C(=O)N(C)CC(=O)N(C)[C@H]2C/C=C\CCN(C2=O)[C@@H](Cc2ccc(C)cc2)C(=O)N(C)CC(=O)N[C@@H](CCc2ccc(Cl)c(Cl)c2)C(=O)N2C[C@H](OCC)C[C@H]2C(=O)NC2(CC(C)(C)C2)C(=O)N(C)[C@@H](CC2CCC2)C(=O)N(C)[C@H](C(=O)N(C)C)CC(=O)N1C [PP2755] | A (a compound having 10 or more and less than 20 is denoted as A) | A (a compound having 10 or more and less than 20 is denoted as A) | – | –
5 | – | – | 0.13 nM | 4.2 nM | – | CC[C@H](C)[C@@H]1NC(=O)[C@H](CC)N(C)C(=O)C[C@@H](C(=O)N2CCOCC2)N(C)C(=O)[C@H](C2CCCC2)N(C)C(=O)C2(CCCC2)NC(=O)[C@@H]2CCCN2C(=O)[C@H](CCc2cc(F)c(C(F)(F)F)c(F)c2)NC(=O)CN(C)C(=O)[C@H](Cc2ccc(C(F)(F)F)cc2)N2C[C@H](C)[C@H](C)C[C@@H](C2=O)N(C)C(=O)CN(C)C1=O [PP1365] | – | – | A (a compound having 10 or more and less than 20 is denoted as A) | B (a compound having 3 or more and less than 10 is denoted as B)
6 | – | 13.9 nM | – | – | 0.4 nM | CCC[C@H]1C(=O)N[C@@H]([C@@H](C)CC)C(=O)N(C2CC2)CC(=O)N(C)[C@H]2C/C=C\CCN(C2=O)[C@@H](Cc2ccc(C)cc2)C(=O)N(C)CC(=O)N[C@@H](CCc2ccc(C(F)(F)F)c(OC)c2)C(=O)N2C[C@H](OCC)C[C@H]2C(=O)NC2(CC(C)(C)C2)C(=O)N(C)[C@@H](CC(C)(C)C)C(=O)N(C)[C@H](C(=O)N(C)C)CC(=O)N1C [PP2722] | B (a compound having 3 or more and less than 10 is denoted as B) | B (a compound having 3 or more and less than 10 is denoted as B) | – | –
7 | 0.75 nM | 12 nM | – | – | – | C#CCN1CC(=O)N(C)[C@H]2C/C=C\CCN(C2=O)[C@@H](Cc2ccc(C(F)F)cc2)C(=O)N(C)CC(=O)N[C@@H](CCc2cc(F)c(C(F)(F)F)c(F)c2)C(=O)N2C[C@H](OC(C)C)C[C@H]2C(=O)N(C)C2(CCC2)C(=O)N(C)[C@@H](C(CC)CC)C(=O)N(C)[C@H](C(=O)N(C)C)CC(=O)N(C)[C@@H](COCCC)C(=O)N[C@@H]([C@@H](C)OC)C1=O [PP3485] | A (a compound having 10 or more and less than 20 is denoted as A) | A (a compound having 10 or more and less than 20 is denoted as A) | – | –
8 | 1.1 nM | 34.3 nM | – | – | – | CCCC[C@H]1C(=O)N[C@@H]([C@@H](C)CC)C(=O)N(C2CC2)CC(=O)N(C)[C@H]2C/C=C\CCN(C2=O)[C@@H](Cc2ccc(C(F)(F)F)cc2)C(=O)N(C)CC(=O)N[C@@H](CCc2ccc(C(F)(F)F)c(OC)c2)C(=O)N2C[C@H](OCC)C[C@H]2C(=O)OC2(CCC2)C(=O)N(C)[C@@H](C2CCCC2)C(=O)N(C)[C@H](C(=O)N(C)C)CC(=O)N1C [PP3366] | A (a compound having 10 or more and less than 20 is denoted as A) | A (a compound having 10 or more and less than 20 is denoted as A) | – | –
9 | 0.26 nM | 6.5 nM | – | – | – | CCC[C@H]1C(=O)N[C@@H](C2CCCC2)C(=O)N(C)CC(=O)N(C)[C@H]2C/C=C\CCN(C2=O)[C@@H](Cc2ccc(C)cc2)C(=O)N(C)CC(=O)N[C@@H](CCc2ccc(C(F)(F)F)c(OC)c2)C(=O)N2CC3(CC3)C[C@H]2C(=O)N(C)C2(CCC2)C(=O)N(C)[C@@H]([C@@H](C)CC)C(=O)N(C)[C@H](C(=O)N(C)C)CC(=O)N1C [PP3318] | A (a compound having 10 or more and less than 20 is denoted as A) | A (a compound having 10 or more and less than 20 is denoted as A) | – | –
10 | – | 7.7 nM | – | – | 0.35 nM | CCOC[C@H]1C(=O)N[C@@H]([C@@H](C)CC)C(=O)N(C2CC2)CC(=O)N(C)[C@H]2C/C=C\CCN(C2=O)[C@@H](Cc2ccc(C)cc2)C(=O)N(C)CC(=O)N[C@@H](CCc2cc(F)c(C(F)(F)F)c(F)c2)C(=O)N2C[C@H](OCC)C[C@H]2C(=O)NC2(CC(C)(C)C2)C(=O)N(C)[C@@H](CC(C)(C)C)C(=O)N(C)[C@H](C(=O)N(C)C)CC(=O)N1C [PP2720] | A (a compound having 10 or more and less than 20 is denoted as A) | A (a compound having 10 or more and less than 20 is denoted as A) | – | –
11 | – | – | 0.19 nM | 18.2 nM | – | CCO[C@@H]1C[C@H]2C(=O)NC3(CCC3)C(=O)N(C)[C@@H](C3CCCC3)C(=O)N(C)[C@H](C(=O)N3CCOCC3)CC(=O)N(C)[C@@H](CC3CCCC3)C(=O)N[C@@H]([C@@H](C)CC)C(=O)N(C)CC(=O)N(C)[C@H]3C/C=C\CCN(C3=O)[C@@H](Cc3ccc(C(F)(F)F)cc3)C(=O)N(C)CC(=O)N[C@@H](CCc3cc(F)c(C(F)(F)F)c(F)c3)C(=O)N2C1 [PP1393] | – | – | A (a compound having 10 or more and less than 20 is denoted as A) | A (a compound having 10 or more and less than 20 is denoted as A)
12 | 1.2 nM | 18.2 nM | – | – | – | CCCC[C@H]1C(=O)N[C@@H]([C@@H](C)CC)C(=O)N(C2CC2)CC(=O)N(C)[C@H]2C/C=C\CCN(C2=O)[C@@H](Cc2ccc(C)cc2)C(=O)N(C)CC(=O)N[C@@H](CCc2ccc(C(F)(F)F)c(OC)c2)C(=O)N2C[C@H](OCC)C[C@H]2C(=O)OC2(CCC2)C(=O)N(C)[C@@H](C2CCCC2)C(=O)N(C)[C@H](C(=O)N(C)C)CC(=O)N1C [PP3384] | A (a compound having 10 or more and less than 20 is denoted as A) | B (a compound having 3 or more and less than 10 is denoted as B) | – | –
